Laboratory results reported in US11208387B2, “Macrocyclic broad spectrum antibiotics” (Genentech, Inc., priority 2019, dated 2021).
≈ marks a conversion by molar mass, not a printed value. Where two headings read alike, the source gives them in different places.

Legend:
Experiment in all cases: Serum MIC, broth micro-dilution
Format in all cases: cell-based
[1] = test system: Acinetobacter baumannii ATCC 17978; conditions: Acinetobacter baumannii
Experimental: (§1) In vitro antimicrobial activity of each compound was determined by measuring minimal inhibitor concentrations (MICs) using the broth micro-dilution technique as approved by the Clinical and Laboratory Standards Institute (CLSI) (Methods for Dilution Antimicrobial Susceptibility Tests for Bacteria that Grow Aerobically; Approved Standard—Eighth Edition. CLSI document M07-A8. Wayne, Pa.: Clinical and Laboratory Standards; 2009). Antibacterial activity was measure against Escherichia coli strain ATCC 25922 (E. coli), Klebsiella pneumoniae ATCC 700603 (K. pneumoniae), Acinetobacter baumannii ATCC 17978 (A. baumannii), and Pseudomonas aeruginosa PA01 (P. aeruginosa), each of which is representative of a clinically relevant Gram-negative species. Cells were inoculated onto plates of Mueller Hinton Agar and grown at 37° C. for 16-18 hours. Inocula suspensions were prepared by scraping cells into 1 mL of testing media (Mueller Hinton II cation adjusted Broth) and diluting to a final OD 600 nm of 0.01.
(§2) Test compounds were prepared in DMSO at a concentration of […]. The compounds were tested under several different dilution formats. In protocol 1, the compound stocks were diluted into testing media at a concentration of 64 μg/ml and serial 2-fold dilutions were made in the same media, in 96-well U bottom microtiter dishes, for a total of 10 compound concentrations. In protocol 2, the compound stocks were diluted into testing media at a concentration of 4 μg/mL and serial 2-fold dilutions were made in the same media, in 96-well U bottom microtiter dishes, for a total of 10 compound concentrations. In protocol 3, compound stocks were diluted into testing media at a concentration of 0.5 μg/mL, with serial 2-fold dilutions conducted as described above. In protocol 4, compound stocks were diluted into testing media at a concentration of 0.13 μg/mL, with serial 2-fold dilutions conducted as described above. Inocula suspensions were added to the 2-fold serial dilutions of test compounds to a final density of OD 600 nm of 0.0005 and incubated at 35° C. for 22 hours. […] To assess antimicrobial activity in the presence of plasma proteins, MICs were also determined in growth media supplemented with 50% serum. Bacterial inocula and test compound dilution plates were prepared using the same protocol as described above for the standard MICs assay, with the exception that a mixture of 50% v/v Mueller Hinton II cation adjusted Broth and 50% v/v mouse sterile filtered serum (Equitech-Bio) was used in place of 100% Mueller Hinton II cation adjusted Broth. The results are listed in Table 3 (MIC, IC50 values micromolar).

[2] = test system: Escherichia coli strain ATCC 25922; conditions: Escherichia coli
Experimental: as §1, §2

[3] = test system: Klebsiella pneumoniae ATCC 700603; conditions: Klebsiella pneumoniae
Experimental: as §1, §2

[4] = test system: Pseudomonas aeruginosa PA01; conditions: Pseudomonas aeruginosa
Experimental: as §1, §2

[5] = ATCC17978, 50% v/v mouse serum in Mueller Hinton II cation adjusted Broth, 35° C., 22 hours, Table 4, read-out: A. baumanii 17978 Serum MIC
[6] = ATCC17978, 50% v/v mouse serum in Mueller Hinton II cation adjusted Broth, 35° C., 22 hours, Table 5, read-out: Acinetobacter baumanii 17978 Serum MIC
[7] = ATCC25922, 50% v/v mouse serum in Mueller Hinton II cation adjusted Broth, 35° C., 22 hours, Table 4, read-out: E. coli 25922 Serum MIC
[8] = ATCC700603, 50% v/v mouse serum in Mueller Hinton II cation adjusted Broth, 35° C., 22 hours, Table 4, read-out: K pneumoniae 700603 Serum MIC
[9] = PA01, 50% v/v mouse serum in Mueller Hinton II cation adjusted Broth, 35° C., 22 hours, Table 4, read-out: P. aeruginosa 01 Serum MIC
[10] = ATCC17978, 50% v/v mouse serum, compounds of Table 1, Table 7, read-out: A. baumanii 17978 Serum MIC
[11] = ATCC25922, 50% v/v mouse serum, compounds of Table 1, Table 7, read-out: E. coli 25922 Serum MIC
[12] = ATCC700603, 50% v/v mouse serum, compounds of Table 1, Table 7, read-out: K. pneumoniae 700603 Serum MIC
[13] = PA01, 50% v/v mouse serum, compounds of Table 1, Table 7, read-out: P. aeruginosa 01 Serum MIC

Row | Compound | MIC [1, 5] [µM] | MIC [1, 6] [µM] | MIC [2, 7] [µM] | MIC [3, 8] [µM] | MIC [4, 9] [µM] | MIC [1, 10] [µM] | MIC [2, 11] [µM] | MIC [3, 12] [µM] | MIC [4, 13] [µM] | MIC ([1]; ATCC17978, read-out: A. baumanii 17978 Serum MIC) [µM] | MIC ([2]; ATCC25922, read-out: E. coli 25922 Serum MIC) [µM] | MIC ([3]; ATCC700603, read-out: K. pneumoniae 700603 Serum MIC) [µM] | MIC ([4]; PA01, read-out: P. aeruginosa 01 Serum MIC) [µM]
1 | Cc1nc(-c2ccc(C3(C)CC3)cc2)ncc1C(=O)N[C@@H](CNS(N)(=O)=O)C(=O)N(C)[C@@H]1C(=O)N[C@@H](C)C(=O)N[C@H](C(=O)O)Cc2ccc(OC[C@H](O)CN)c(c2)-c2cc1cc(OC[C@H](O)CN)c2O [Example 5, (8S,11S,14S)-18-hydroxy-11-methyl-14-[methyl-[(2S)-2-[[4-methyl-2-[4-(1-methylcyclopropyl)-phenyl]pyrimidine-5-carbonyl]amino]-3-(sulfamoylamino)-propanoyl]amino]-10,13-dioxo-3,17-bis[(2R)-3-amino-2-hydroxy-propoxy]-9,12-diazatricyclo-[13.3.1.12,6]icosa-1(18),2(20),3,5,15(19), 16-hexaene-8-carboxylic acid] | 12 (≈ 11.9 µg/mL) | 12 (≈ 11.9 µg/mL) | 0.63 (≈ 0.624 µg/mL) | 0.88 (≈ 0.872 µg/mL) | 20 (≈ 19.8 µg/mL) |  |  |  |  |  |  |  | 
2 | Cc1nc(-c2ccc(C(C)(C)C)cc2)nc(C)c1C(=O)N[C@@H](CCN)C(=O)N(C)[C@@H]1C(=O)N[C@@H](C)C(=O)N[C@H](C(=O)O)Cc2cc(OCCN)c(O)c(c2)-c2cc1ccc2OCCN (racemic) [Example 563] |  |  |  |  |  |  |  |  |  | 64 (≈ 56.5 µg/mL) | 0.75 (≈ 0.662 µg/mL) | 0.75 (≈ 0.662 µg/mL) | 64 (≈ 56.5 µg/mL)
3 | Cc1nc(-c2ccc(C3(C)CC3)cc2)ncc1C(=O)N[C@@H](CCN)C(=O)N(C)[C@@H]1C(=O)N[C@@H](C)C(=O)N[C@H](C(=O)O)Cc2ccc(OC[C@@H](O)CN)c(c2)-c2cc1cc(OC[C@@H](O)CN)c2O [Example 73, (8S,11S,14S)-3,17-bis[(2S)-3-amino-2-hydroxy-propoxy]-14-[[(2S)-4-amino-2-[[4-methyl-2-[4-(1-methylcyclopropyl)-phenyl]pyrimidine-5-carbonyl]amino]-butanoyl]-methyl-amino]-18-hydroxy-11-methyl-10,13-dioxo-9,12-diazatri-cyclo-[13.3.1.12,6]icosa-1(19),2(20),3,5,15,17-hexaene-8-carboxylic acid] | 16 (≈ 14.8 µg/mL) | 16 (≈ 14.8 µg/mL) | 0.38 (≈ 0.352 µg/mL) | 0.25 (≈ 0.232 µg/mL) | 64 (≈ 59.3 µg/mL) |  |  |  |  |  |  |  | 
4 | CCCCCCOc1ccc(-c2nc(C)c(C(=O)N[C@@H](CCN)C(=O)N(C)[C@@H]3C(=O)N[C@@H](C)C(=O)N[C@H](C(=O)O)Cc4ccc(OCCN)c(c4)-c4cc3ccc4OCCN)c(C)n2)cc1 (racemic) [Example 641] |  |  |  |  |  | 64 (≈ 58.2 µg/mL) | 0.75 (≈ 0.683 µg/mL) | 1 (≈ 0.91 µg/mL) | 64 (≈ 58.2 µg/mL) |  |  |  | 
5 | Cc1nc(-c2ccc(OC(C)C)cc2)nc(C)c1C(=O)N[C@@H](CCN)C(=O)N(C)[C@@H]1C(=O)N[C@@H](C)C(=O)N[C@H](C(=O)O)Cc2ccc(O)c(c2)-c2cc1ccc2OCCN (racemic) [Example 643] |  |  |  |  |  | 73 (≈ 60.2 µg/mL) | 2.3 (≈ 1.9 µg/mL) | 4.6 (≈ 3.79 µg/mL) | 73 (≈ 60.2 µg/mL) |  |  |  | 
6 | C[C@@H]1NC(=O)[C@@H](N(C)C(=O)[C@H](CNS(N)(=O)=O)NC(=O)c2c(N)cc(-c3ccc(C(C)(C)C)cc3)nc2Cl)c2cc(OC[C@H](O)CN)c(O)c(c2)-c2cc(ccc2OC[C@H](O)CN)C[C@@H](C(=O)O)NC1=O [Example 37, (8S,11S,14S)-14-[[(2S)-2-[[4-amino-6-(4-tert-butylphenyl)-2-chloro-pyridine-3-carbonyl]amino]-3-(sulfamoylamino)-propanoyl]-methyl-amino]-3,17-bis[(2R)-3-amino-2-hydroxy-propoxy]-18-hydroxy-11-methyl-10,13-dioxo-9,12-diazatri-cyclo[13.3.1.12,6]icosa-1(18),2(20),3,5,15(19), 16-hexaene-8-carboxylic acid] | 8 (≈ 8.22 µg/mL) | 8 (≈ 8.22 µg/mL) | 0.5 (≈ 0.514 µg/mL) | 0.5 (≈ 0.514 µg/mL) | 4 (≈ 4.11 µg/mL) |  |  |  |  |  |  |  | 
7 | Cc1nc(N2CCC(C(C)(C)C)CC2)nc(N)c1C(=O)N[C@@H](CCN)C(=O)N(C)[C@@H]1C(=O)N[C@@H](C)C(=O)N[C@H](C(=O)O)Cc2ccc(OC[C@H](O)CN)c(c2)-c2cc1cc(OC[C@H](O)CN)c2O [Example 25, (8S,11S,14S)-18-hydroxy-11-methyl-14-[methyl-[(2S)-4-amino-2-[[4-amino-2-(4-tert-butyl-1-piperidyl)-6-methyl-pyrimidine-5-carbonyl]amino]-butanoyl]amino]-10,13-dioxo-3,17-bis[(2R)-3-amino-2-hydroxy-propoxy]-9,12-diazatricyclo-[13.3.1.12,6]icosa-1(18),2(20),3,5,15(19), 16-hexaene-8-carboxylic acid] | 16 (≈ 15.2 µg/mL) | 16 (≈ 15.2 µg/mL) | 1 (≈ 0.95 µg/mL) | 0.5 (≈ 0.475 µg/mL) | 64 (≈ 60.8 µg/mL) |  |  |  |  |  |  |  | 

Further lines, with some results ahead:

Row | MIC [1, 5] [µM] | MIC [1, 6] [µM] | MIC [2, 7] [µM] | MIC [3, 8] [µM] | MIC [4, 9] [µM] | MIC [1, 10] [µM] | MIC [2, 11] [µM] | MIC [3, 12] [µM] | MIC [4, 13] [µM] | Compound | MIC ([1]; ATCC17978, read-out: A. baumanii 17978 Serum MIC) [µM] | MIC ([2]; ATCC25922, read-out: E. coli 25922 Serum MIC) [µM] | MIC ([3]; ATCC700603, read-out: K. pneumoniae 700603 Serum MIC) [µM] | MIC ([4]; PA01, read-out: P. aeruginosa 01 Serum MIC) [µM]
8 | 8 (≈ 8.18 µg/mL) | 8 (≈ 8.18 µg/mL) | 0.5 (≈ 0.511 µg/mL) | 0.75 (≈ 0.767 µg/mL) | 4 (≈ 4.09 µg/mL) |  |  |  |  | Cc1nc(-c2ccc(CC(C)(C)C)cc2)nc(N)c1C(=O)N[C@@H](CNS(N)(=O)=O)C(=O)N(C)[C@@H]1C(=O)N[C@@H](C)C(=O)N[C@H](C(=O)O)Cc2ccc(OC[C@H](O)CN)c(c2)-c2cc1cc(OC[C@H](O)CN)c2O [Example 42, (8S,11S,14S)-14-[[(2S)-2-[[4-amino-2-[4-(2,2-dimethyl-propyl)phenyl]-6-methyl-pyrimidine-5-carbonyl]amino]-3-(sulfamoylamino)-propanoyl]-methyl-amino]-3,17-bis[(2R)-3-amino-2-hydroxy-propoxy]-18-hydroxy-11-methyl-10,13-dioxo-9,12-diazatri-cyclo[13.3.1.12,6]icosa-1(18),2(20),3,5,15(19), 16-hexaene-8-carboxylic acid] |  |  |  | 
9 | 8 (≈ 8.04 µg/mL) | 8 (≈ 8.04 µg/mL) | 0.5 (≈ 0.503 µg/mL) | 0.5 (≈ 0.503 µg/mL) | 8 (≈ 8.04 µg/mL) |  |  |  |  | Cc1nc(-c2ccc(C3(C)CC3)cc2)nc(C)c1C(=O)N[C@@H](CNS(N)(=O)=O)C(=O)N(C)[C@@H]1C(=O)N[C@@H](C)C(=O)N[C@H](C(=O)O)Cc2ccc(OC[C@H](O)CN)c(c2)-c2cc1cc(OC[C@H](O)CN)c2O [Example 15, (8S,11S,14S)-18-hydroxy-11-methyl-14-[methyl-[(2S)-2-[[4,6-dimethyl-2-[4-(1-methylcyclo-propyl)phenyl]-pyrimidine-5-carbonyl]amino]-3-(sulfamoylamino)-propanoyl]amino]-10,13-dioxo-3,17-bis[(2R)-3-amino-2-hydroxy-propoxy]-9,12-diazatricyclo-[13.3.1.12,6]icosa-1(18),2(20),3,5,15(19), 16-hexaene-8-carboxylic acid] |  |  |  | 
10 | 24 (≈ 24.8 µg/mL) | 24 (≈ 24.8 µg/mL) | 1.5 (≈ 1.55 µg/mL) | 2 (≈ 2.07 µg/mL) | 8 (≈ 8.27 µg/mL) |  |  |  |  | Cc1nc(-c2ccc(C(C)(C)C)cc2C#N)nc(N)c1C(=O)N[C@@H](CNS(N)(=O)=O)C(=O)N(C)[C@@H]1C(=O)N[C@@H](C)C(=O)N[C@H](C(=O)O)Cc2ccc(OC[C@H](O)CN)c(c2)-c2cc1cc(OC[C@H](O)CN)c2O [Example 39, (8S,11S,14S)-14-[[(2S)-2-[[4-amino-2-(4-tert-butyl-2-cyano-phenyl)-6-methyl-pyrimidine-5-carbonyl]amino]-3-(sulfamoylamino)-propanoyl]-methyl-amino]-3,17-bis[(2R)-3-amino-2-hydroxy-propoxy]-18-hydroxy-11-methyl-10,13-dioxo-9,12-diazatri-cyclo[13.3.1.12,6]icosa-1(18),2(20),3,5,15(19), 16-hexaene-8-carboxylic acid] |  |  |  | 
